From US6559100B1, “2-benzoyl-cyclohexane-1,3-diones” (BASF Aktiengesellschaft, priority 1997, dated 2003)

What was measured:
Test in all cases: Greenhouse herbicidal activity, post-emergence treatment
Conditions in all cases: 0.5 or 0.25 kg/ha of a.s.
Setaria viridis = type: in vivo, Setaria viridis (green foxtail)
Description: (§1) The culture containers used were plastic pots containing loamy sand with approximately 3.0% of humus as the substrate. The seeds of the test plants were sown separately for each species.
(§2) For the post-emergence treatment, the test plants were first grown to a height of 3 to 15 cm, depending on the plant habit, and only then treated with the active compounds which had been emulsified or suspended in water. The test plants were for this purpose either sown directly and grown in the same containers, or they were first grown separately as seedlings and transplanted into the test containers a few days prior to treatment. The application rate for the post-emergence treatment was 0.5 or 0.25 kg/ha of a.s.
(§3) Depending on the species, the plants were kept at 10-25° C. or 20-35° C. . The test period extended over 2 to 4 weeks. During this time, the plants were tended, and their response to the individual treatments was evaluated.
(§4) The evaluation was carried out using a scale from 0 to 100. 100 means no emergence of the plants, or complete destruction of at least the aerial parts, and 0 means no damage, or normal course of growth.
(§5) The plants used in the greenhouse trials were from the following species:
(§6) Herbicidal activity when employed by the post-emergence method (greenhouse) [drawing 20]

Solanum nigrum = type: in vivo, Solanum nigrum (black nightshade)
Description: as §1, §2, §3, §4, §5, §6

Sinapis alba = type: in vivo, Sinapis alba (white mustard)
Description: as §1, §2, §3, §4, §5, §6

Chenopodium album = type: in vivo, Chenopodium album (lambsquarters, goosefoot)
Description: as §1, §2, §3, §4, §5, §6

Measured: control of the weed (herbicidal activity)

CC1(C)C(=O)C(C(=O)c2ccc(Cl)c(CC3=NOCC3)c2Cl)=C(O)C(C)(C)C1=O [Compound 37.2, 2,4-Dichloro-3-((4,5-dihydro-3-isoxazolylmethyl)phenyl)(3,3,6,6-tetramethylcyclohexane-1,3,5-trione)methanone]
very efficient control: all assays above
